{"source": "patent US7964609B2", "about": "“Use of mGluR5 antagonists for the treatment of gerd” (AstraZeneca AB, priority 2002, dated 2011)", "test_system": "transient lower esophageal sphincter relaxations (TLESRs)", "assay": "Screening for compounds active against TLESR, Barostat model (air infusion to an intragastric pressure of 10±1 mmHg)", "assay_type": "in vivo, Adult Labrador retrievers", "conditions": "dose 1 μmol/kg/h, infusion during 60 min", "protocol": "Adult Labrador retrievers of both genders, trained to stand in a Pavlov sling, are used. Mucosa-to-skin esophagostomies are formed and the dogs are allowed to recover completely before any experiments are done. In brief, after fasting for approximately 17 h with free supply of water, a multilumen sleeve/sidehole assembly ([…], Adelaide, South Australia) is introduced through the esophagostomy to measure gastric, lower esophageal sphincter (LES) and esophageal pressures. The assembly is perfused with water using a low-compliance manometric perfusion pump ([…], Adelaide, South Australia). An air-perfused tube is passed in the oral direction to measure swallows, and an antimony electrode monitored pH, 3 cm above the LES. All signals are amplified and acquired on a personal computer at 10 Hz. When a baseline measurement free from fasting gastric/LES phase III motor activity has been obtained, placebo (0.9% NaCl) or test compound is administered intravenously (i.v., 0.5 ml/kg) in a foreleg vein. […] Immediately following the meal, air is insufflated at 40 ml/min. In an alternative model (Barostat model), the infusion of the nutrient meal is followed by air infusion at a rate of 500 ml/min until a intragastric pressure of 10±1 mmHg is obtained. […]"}
{"smiles": "N#Cc1cc(F)cc(-c2nc(-c3ccc(F)cn3)no2)c1", "note": "[3-fluoro-5-[3-(5-fluoropyridin-2-yl)-1,2,4-oxadiazol-5-yl]benzonitrile]", "values": [{"measurement": "% INHIBITION ± SEM (N)", "value": "70 ± 4 (3) %"}]}
